{"source": "patent US11203583B2", "about": "“Prodrug and profluorescent compounds for selective mitochondrial imaging and therapeutic targeting” (ARIZONA BOARD OF REGENTS ON BEHALF OF ARIZONA STATE …, priority 2016, dated 2021)", "key": {"DT diaphorase": {"molecular_target": "DT diaphorase (Homo sapiens, UniProt P15559)", "sequence (P15559 whole entry, species assumed)": "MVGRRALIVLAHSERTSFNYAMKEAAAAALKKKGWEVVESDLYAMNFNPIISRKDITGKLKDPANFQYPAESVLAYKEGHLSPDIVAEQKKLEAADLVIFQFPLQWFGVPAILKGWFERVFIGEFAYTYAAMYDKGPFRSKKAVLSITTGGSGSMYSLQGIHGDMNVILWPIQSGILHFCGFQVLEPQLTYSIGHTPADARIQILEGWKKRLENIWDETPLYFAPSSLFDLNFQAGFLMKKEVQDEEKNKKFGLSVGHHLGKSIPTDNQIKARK", "experiment": "Selectivity of probe activation: DT diaphorase versus nitroreductase", "type": "biochemical", "settings": "10 μM 2c, 1 μg mL^-1 DTD or NTR, 10 mM PBS pH 7.4, 20 min, 25° C.", "description": "FIGS. 6A-6D. (a) Selective activation of 2c in vitro by E. coli nitroreductase. (b) Time dependent fluorescence emission by 2a, 2b and 2c (excitation at 572 nm; emission at 703 nm) in PBS at 25° C. following treatment with E. coli NTR (1 μg mL^−1) and 0.5 mM NADH. (c) Absorbance spectrum evolution with time during incubation of probe 2c in […] PBS buffer, pH 7.4, with E. coli NTR (1 μg mL^−1) and 0.5 mM NADH. (d) Development of fluorescence from 10 μM 2c following treatment with 1 μg mL^−1 DT diaphorase (DTD) or nitroreductase (NTR) in 10 mM PBS buffer, pH 7.4, for 20 min at 25° C. with or without […] NADH.\nThe strategy for the release of the fluorescent NIR dye from a non-fluorescent precursor via mitochondrial nitroreductase-mediated reduction involved successive reduction, then elimination (FIG. 5b). The use of ortho, meta and para substituted probes (2a-2c) was crucial because it enabled the investigation of the proposed transformation in greater detail. […] To assess the viability of these probes for the detection of nitroreductase activity, we first validated the probes in a cell free system using purified E. coli nitroreductase. […] After a short time, during which no fluorescence was observed, the nitroreductase was added (1 μg mL^−1) and the development of fluorescence was monitored as a function of time (FIGS. 6b, 6c). […]"}, "E. coli nitroreductase": {"molecular_target": "E. coli nitroreductase (Escherichia coli, UniProt P38489)", "sequence (P38489 whole entry)": "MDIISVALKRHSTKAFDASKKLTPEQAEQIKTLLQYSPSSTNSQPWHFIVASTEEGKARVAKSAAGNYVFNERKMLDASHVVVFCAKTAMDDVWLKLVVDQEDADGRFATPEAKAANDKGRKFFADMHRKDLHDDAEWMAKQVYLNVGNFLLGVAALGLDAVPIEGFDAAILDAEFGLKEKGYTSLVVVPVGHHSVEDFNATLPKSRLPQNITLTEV", "experiment": "Cell-free activation of profluorescent probes by purified E. coli nitroreductase (fluorescence monitoring)", "type": "biochemical", "description": "(§1) The strategy for the release of the fluorescent NIR dye from a non-fluorescent precursor via mitochondrial nitroreductase-mediated reduction involved successive reduction, then elimination (FIG. 5b). The use of ortho, meta and para substituted probes (2a-2c) was crucial because it enabled the investigation of the proposed transformation in greater detail. […] To assess the viability of these probes for the detection of nitroreductase activity, we first validated the probes in a cell free system using purified E. coli nitroreductase. Probes 2a-c (10 μM) were incubated in PBS buffer, pH 7.4, containing 0.5 mM NADH. After a short time, during which no fluorescence was observed, the nitroreductase was added (1 μg mL^−1) and the development of fluorescence was monitored as a function of time (FIGS. 6b, 6c). […] This confirms that the released fluorescent dye is effectively of the QCy7 type by comparison with an authentic standard prepared by chemical synthesis (FIG. 13). With the viability of this probe thus confirmed, we carried out microscopy experiments employing A549 cancer cells. The incubation of 10 μM 2c with the cells for 4 hours was followed by the addition of […] mitotracker green (40-minute incubation). […] The green channel (FIG. 7b) illustrates visualization of the mitochondria by mitotracker green. […] For 2b this is understandable as no elimination process is possible, as confirmed during the in vitro tests. In the case of 2a, we assume that the low kinetics of the reduction (c.f. FIG. 6b) is probably the cause of the absence of a strong signal. […]\nA solution of fluorogenic probe was prepared in 1 mL of phosphate buffered saline (PBS) and 150 μL of the resulting solution was transferred into a quartz fluorescence cell. […] After excitation at 572 nm the emission of the released fluorophore was monitored at 703 nm over time with measurements recorded every 1 sec. After 100 sec of incubation, 1.51 μL of a 1 mg mL^−1 solution of E. coli nitroreductase in water was added in the quartz fluorescence cell and the solution was mixed as the monitoring proceeded."}, "[1]": {"system": "mitochondrial nitroreductase in live A549 cells", "experiment": "Fluorescence microscopy: activation of probes 2a, 2b and 2c in live A549 cells", "type": "cell-based, human", "description": "as §1\nFluorescence images were acquired using a Zeiss Axiovert 200M inverted microscope fitted with an AxioCam MRm camera equipped with a 300 W xenon lamp (Sutter, Novato, Calif.), and Texas red and FITC filters (Chroma, Bellows Falls, Vt.). […] Thereafter, all images were recorded and the target cells counted using a 40× oil objective. […] Pixel intensity was quantified using AxioVision release 4.7 version software, and the mean pixel intensity was generated as gray level. […]"}, "[2]": {"system": "mitochondrial nitroreductase in live A549 cells", "experiment": "Fluorescence microscopy: activation of prodrugs 4a and 4b (AMA release) in live A549 cells", "type": "cell-based, human", "settings": "25 μM; for release of AMA (appearance of AMA fluorescence, λem ~425 nm) in live A549 cells: 4 hours; for localization of AMA fluorescence relative to mitochondria in A549 cells: MitoTracker Green FM", "description": "The finding of nitroreductase activity associated with the mitochondria of human cells encouraged us to design a new prodrug based on the mitochondrial poison antimycin A (AMA). It has recently been noted that AMA is toxic only at relatively high concentration,^19 plausibly due to a lack of facile access to the mitochondria. […] Accordingly, 0-p-nitrobenzyl-AMA (4a) was prepared in good yield by alkylation of AMA (FIG. 8a). Also prepared as a control was O-benzyl-AMA (4b). […] Accordingly, it is possible to monitor the release of AMA within the mitochondria after enzymatic reduction of the nitro moiety in 4a.\nFluorescence microscopy images were acquired using a Zeiss Axiovert 200M inverted microscope fitted with an AxioCam MRm camera equipped with a 300 W xenon lamp (Sutter, Novato, Calif., USA), and DAPI (blue channel) and Texas red (red channel) filters (Chroma, Bellows Falls, Vt., USA). A549 cells were grown on glass bottom microwell disks (MatTek Corporation, MA, USA) at a cell density of 10000 cells/well at 37° C. for 24 hours. When the cell confluence reached ˜60-70%, the cells were rinsed three times with phosphate buffered saline (PBS). The cells were then treated with AMA, 4a and 4b at 25 μM concentration for 4 hours. The cells were then stained using 100 nM MitoTracker Green FM (Cell Signaling Technology, Danvers, Mass., USA) for 40 minutes. Thereafter, all images were recorded and counted using a 40× oil objective. To ensure accurate intensity measurements, the exposure time and laser time were kept the same. Data are reported as the mean of three independent experiments."}, "[3]": {"system": "NADH oxidase (mitochondrial respiratory complexes I, III, and IV)", "experiment": "NADH oxidase activity assay in bovine heart submitochondrial particles", "type": "biochemical", "settings": "for NADH oxidase inhibitory activity (qualitative comparison): 0.05, 0.1 and 0.5 μM concentrations, FIG. 9a", "description": "The effect of compounds AMA, 4a and 4b on NADH oxidase activity were evaluated using bovine heart mitochondria. The bovine heart mitochondria and bovine heart submitochondrial particles (SMPs) were prepared as described.^2 The SMPs were diluted to 0.5 mg/mL, and the test compounds were assayed at 25° C. and monitored spectrophotometrically using a Beckman Coulter DU-530 spectrometer (340 nm, c 6.22 mM^−1 cm^−1). NADH oxidase activity was determined in 1 mL of 50 mM Hepes buffer containing 5 mM MgCl2, pH 7.5. The final mitochondrial protein concentration was 30 μg/mL. The initial rates of NADH oxidation were calculated from the linear portion of the traces. Data are reported as the mean of three independent experiments each run in triplicate."}, "[4]": {"experiment": "Relative fluorescence quantum yield", "type": "physicochemical", "description": "All experiments requiring anhydrous conditions were conducted in flame-dried glassware fitted with a rubber septum under a positive pressure of dry argon. Reactions were performed at room temperature unless otherwise indicated. Analytical thin layer chromatography was performed using glass plates pre-coated with silica gel (0.25 mm, 60 Å pore size, 230-400 mesh, Silicycle) impregnated with a fluorescent indicator (254 nm). TLC plates were visualized by exposure to ultraviolet light (UV) or by staining using […]. Flash column chromatography was performed employing silica gel (60 Å pore size, 40-63 μm, standard grade, Silicycle). Fluorescence quantum yields were measured at 25° C. by a relative method using cresyl violet (CV, ΦF=56% in EtOH) as a standard.^1 The following equation was used to determine the relative fluorescence quantum yield: ΦF(x)=(AS/AX)(FX/FS)(nX/nS)^2ΦF(s) where A is the absorbance (in the range of 0.01-0.1 A.U.), F is the area under the emission curve, n is the refractive index of the solvents (at 25° C.) used in measurements, and the subscripts s and x represent standard and unknown, respectively. The following refractive index values were used: 1.362 for EtOH and 1.337 for PBS."}, "A549 lung cancer cells": {"system": "A549 lung cancer cells", "experiment": "MTT toxicity assay", "type": "cell-based, human", "settings": "24 h incubation at 1, 5 and 10 μM, FIG. 9b", "description": "Exponentially growing A459 cells were harvested and plated in 96-well plates at a concentration of 2×10^4 cells/well. After incubation at 37° C. for 24 h, the cells were treated with compounds AMA, 4a and 4b at final concentrations of 1, 5 and 10 μM for an additional 24 hours. Then 20 μL of MTT (5 mg/mL) was added to each well and the plates were incubated at 37° C. for 4 h. The supernatants were discarded, and 100 μL of DMSO was added to each well. The absorbance was recorded at 490 nm after 15 min. Cell viability was determined by the following formula: cell viability (%)=100−(ODnegative control−ODtreatment)×100%/(ODnegative control−ODbackground). Data are reported as the mean of three independent experiments, each run was carried out quintuplicate."}}, "note": "Entries after “also recorded” stand apart in the source; their conditions may differ.", "data": [{"smiles": "CC[N+]1=C(/C=C/c2ccc(OCc3ccc([N+](=O)[O-])cc3)c(/C=C/C3=[N+](CC)c4ccccc4C3(C)C)c2)C(C)(C)c2ccccc21", "note": "[probe 2c]", "values": [{"measurement": "activation by DT diaphorase versus nitroreductase, with or without NADH", "setting": "DT diaphorase", "value": "significant activation occurred only in the presence of the nitroreductase+NADH"}, {"measurement": "rate of activation by E. coli nitroreductase, compared between probes", "setting": "E. coli nitroreductase; 10 μM probe, PBS pH 7.4, 0.5 mM NADH, NTR 1 μg mL^-1", "value": "much faster than the activation of 2a"}, {"measurement": "development of fluorescence (activation) after addition of E. coli nitroreductase", "setting": "E. coli nitroreductase; 10 μM probe, PBS pH 7.4, 0.5 mM NADH, NTR 1 μg mL^-1, excitation 572 nm, emission 703 nm, 25° C.", "value": "good activation"}, {"measurement": "dependence of fluorescence / activation on probe concentration", "setting": "E. coli nitroreductase; PBS 25° C., 0.5 mM NADH, E. coli NTR 1 μg mL^-1", "value": "linear correlation between fluorescence intensity and probe concentration; also recorded: increased with increasing substrate concentration"}, {"measurement": "colocalization of probe fluorescence with MitoTracker Green (mitochondria)", "setting": "[1]; 10 μM 2c, 100 nM MitoTracker Green FM, DAPI", "value": "colocalized to mitochondria; also recorded: complete overlap of the red and green signals"}, {"measurement": "red fluorescence signal (release of QCy7 dye 3) in live A549 cells", "setting": "[1]; 10 μM probe, 4 hours incubation, no hypoxic condition", "value": "activation of 2c by mitochondrial nitroreductase; also recorded: appearance of a red signal"}, {"measurement": "concentration dependence of the signal in A549 cells", "setting": "[1]; different times and concentrations, FIG. 16", "value": "concentration dependent"}]}, {"smiles": "CCCCCC[C@H]1C(=O)O[C@H](C)[C@H](NC(=O)c2cccc(NC=O)c2OCc2ccccc2)C(=O)O[C@@H](C)[C@@H]1OC(=O)CC(C)C", "note": "[Compound 4b, 2-O-Benzyl-AMA]", "values": [{"measurement": "release of AMA (appearance of AMA fluorescence, λem ~425 nm) in live A549 cells", "setting": "[2]", "value": "no significant release of AMA; also recorded: not to a significant extent"}, {"measurement": "NADH oxidase inhibitory activity (qualitative comparison)", "setting": "[3]", "value": "much weaker activity"}]}, {"smiles": "CCCCCC[C@H]1C(=O)O[C@H](C)[C@H](NC(=O)c2cccc(NC=O)c2O)C(=O)O[C@@H](C)[C@@H]1OC(=O)CC(C)C", "note": "[AMA, antimycin A, reference compound]", "values": [{"measurement": "localization of AMA fluorescence relative to mitochondria in A549 cells", "setting": "[2]", "value": "did not fully colocalize with mitochondria"}, {"measurement": "quantum yield of the released AMA", "setting": "[4]", "value": "~0.06"}, {"measurement": "inhibition of NADH oxidase", "setting": "[3]; 50 nM concentration", "value": "essentially completely"}, {"measurement": "NADH oxidase inhibitory activity (qualitative comparison)", "setting": "[3]", "value": "potent inhibitor"}]}, {"smiles": "CCCCCC[C@H]1C(=O)O[C@H](C)[C@H](NC(=O)c2cccc(NC=O)c2OCc2ccc([N+](=O)[O-])cc2)C(=O)O[C@@H](C)[C@@H]1OC(=O)CC(C)C", "note": "[Compound 4a, 2-O-(p-Nitrobenzyl)AMA]", "values": [{"measurement": "cytotoxicity toward A549 cancer cells (qualitative comparison)", "setting": "A549 lung cancer cells", "value": "much more cytoxic toward A549 cancer cells than 4b; also recorded: considerably more cytotoxic than exogenously added AMA"}, {"measurement": "release of AMA (appearance of AMA fluorescence, λem ~425 nm) in live A549 cells", "setting": "[2]", "value": "AMA was released from 4a"}, {"measurement": "localization of AMA fluorescence relative to mitochondria in A549 cells", "setting": "[2]", "value": "Free AMA appeared exclusively in the mitochondria; also recorded: localized to the mitochondria"}, {"measurement": "NADH oxidase inhibitory activity (qualitative comparison)", "setting": "[3]", "value": "much weaker activity"}]}]}
